Data reported in US4619823A, “Radioactive iodine labeled metaraminol and diagnostic agent containing platelets labeled therewith” (Nihon Medi-Physics Co., Ltd., priority 1983, dated 1986).

Tested on: platelets
Conditions: 100 µM
Description: Change of the take up rate of ^125 I-labled metaraminol into platelets in coexistence with of a medical compound:
The take up rate of ^125 I-labeled metaraminol into platelets in the coexistence with a medical compound was examined. Calculation was make taking the take up rate in case of ^125 I-labeled metaraminol alone as 100%. ^125 I-labeled metaraminol was added to platelets in a molar concentration of 1×10^-7.
For `CNCC(O)c1ccc(O)c(O)c1` (stereo not shown) [Adrenaline], the activity was 61.6 ± 8.3%.
Work on `CN(C)CCCN1c2ccccc2CCc2ccccc21` [Imipramine] yielded an activity of 45.8 ± 6.3%.
`Cc1ccc(N(CC2=NCCN2)c2cccc(O)c2)cc1` [Phentolamine] showed an activity of 43.1 ± 3.4%.
In the case of `CC(C)NCC(O)COc1cccc2ccccc12` (stereo not shown) [Propranolol], the activity is reported as 18 ± 3.1%.
Work on `NCCc1c[nH]c2ccc(O)cc12` [Serotonin] yielded an activity of 17.1 ± 10.3%.

Tested on: not given
Conditions: background statement; cited from earlier work
For `CC(N)C(O)c1cccc(O)c1` (stereo not drawn) [metaraminol, alpha-(1-aminoethyl)-3-hydroxybenzenemethanol], the toxicity is listed as “no practical toxicity problem”.
For `Oc1cccc2cccnc12` [oxine], the toxicity is listed as “relatively high toxicity”.
